Structures can show the parent of a compound that is named as a salt.
Experiments:
[1] = system: human breast cancer cell (MCF-7); assay: cells; settings: for TGI MCF-7: 72 hours culture with compound, maximum concentration 10 μM; for GI50 / CC50: Homo sapiens, MCF7, 72 h; for GI50: read-out: GI50 MCF-7; for CC50: read-out: LC50 MCF-7
Procedure: (§1) As positive control substances, 5-fluorouracil (5-FU, Sigma) and gemcitabine hydrochloride (Gemzar, GEM, Eli Lilly Japan K.K.), were tested. The experiment was carried out in accordance with the method carried out by the Commission of Screening for Carcinostatic Agents of the Ministry of Education, Culture, Sports, Science and Technology. With respect to each of experiment groups, the experiment was repeated nine times and an average value was determined. Specifically, each type of cultured cells were seeded into a 96-well microplate at a density of 1×10^4 cells per well (5.0×10^4 cells/mL, 200 μL), the cells were cultured under 5% CO2 at 37° C. for 24 hours, the culture medium was replaced by a culture medium containing the compound (180 μL, the maximum dose of each of the compound was 10 μM, and the final concentration of dimethylsulfoxide (DMSO, Sigma) was adjusted to 0.25%), and the culture was further continued under the same conditions for 72 hours. In this experiment, Dulbecco's modified Eagle's medium (D-MEM, Wako Pure Chemical Industries, Ltd.) was used for the culture of MIA PaCa-2, and Eagle's minimal essential medium (E-MEM, Wako Pure Chemical Industries, Ltd.) was used for the culture of MCF-7.
(§2) After the completion of the culture, alamar blue (20 μL) (Iwaki Glass Co., Ltd.) was added to the culture medium, the resultant mixture was agitated, the culture was then carried out for 3 hours, and fluorescence values were determined on a fluorescence plate reader (Spectra Max M5 (Nihon Molecular Devices Corporation)) at an excitation wavelength of 530 nm and a fluorescence wavelength of 590 nm.
(§3) The fluorescence values immediately before the action of each of the compounds were determined by replacing the culture medium, adding alamar blue (20 μL) immediately after the replacement of the culture medium, agitating the resultant mixture, carrying out the culture for 3 hours, and measuring the fluorescence values on a fluorescence plate reader.
(§4) On the basis of the measurement values thus obtained, Tz (the state of the cultured cells immediately before the action of the compound), GI50 (the concentration of the compound required for inhibiting the proliferation of the cultured cells by 50% relative to the proliferation of the cultured cells in the presence of […]), TGI (the concentration of the compound required for inhibiting the proliferation of the cells in such a manner that the number of the cells became the same as Tz), LC50 (the concentration of the compound required for decreasing the number of the cells to 50% of Tz) and the proliferation rate (the rate of the proliferation of the cultured cells from the time pint of the action of the compound until the time point of the measurement of fluorescence) were determined.
(§5) Due to the problem of the solubility of each of the compounds, the maximum concentration was set at 10 μM.

[2] = system: human pancreatic cancer cell (MIA PaCa-2); assay: cells; settings: for TGI MIA PaCa-2: 72 hours culture with compound, maximum concentration 10 μM; for GI50: read-out: GI50 MIA PaCa-2; for proliferation rate: MIA PaCa-2, at a concentration of 10 μM
Procedure: as §1, §2, §3, §4, §5

## Nc1ccn([C@@H]2O[C@H](CO)[C@@H](O)C2(F)F)c(=O)n1 [GEM, gemcitabine hydrochloride]
[1]
  cytotoxic or cell proliferation inhibition activity: did not exhibit either of these activities
  TGI MCF-7: >10 µM
  GI50: > 10 µM
  CC50: > 10 µM
[1]; MCF-7
  concentration from which no increase in the activity was observed: ≥ 0.05 µM
[1]; MCF-7, at a concentration of 10 ηM
  proliferation rate: 59.52%
[2]
  cytotoxic or cell proliferation inhibition activity: exhibited a cytotoxic or cell proliferation inhibition activity
  TGI MIA PaCa-2: >10 µM
  proliferation rate: 26.47%
[2]; Homo sapiens, MIA PaCa-2, 72 h
  GI50: 0.035 µM
[2]; MIA PaCa-2
  concentration from which no increase in the activity was observed: ≥ 0.05 µM

## O=c1[nH]cc(F)c(=O)[nH]1 [5-FU, 5-fluorouracil]
[1]
  cytotoxic or cell proliferation inhibition activity: did not exhibit either of these activities
  TGI MCF-7: >10 µM
  GI50: > 10 µM
  CC50: > 10 µM
[2]
  cytotoxic or cell proliferation inhibition activity: did not exhibit either of these activities
  TGI MIA PaCa-2: >10 µM
[2]; Homo sapiens, MIA PaCa-2, 72 h
  GI50: > 10 µM

## COCCNS(=O)(=O)c1ccc(OC)c2oc(-c3csc(NC(=O)CCl)n3)cc12 [MU-1497, 2-chloro-N-{4-[7-methoxy-4-(2-methoxyethylsulfamoyl)-benzofuran-2-yl]-thiazol-2-yl}-acetamide]
[1]
  concentration at which a cytotoxic or cell proliferation inhibition activity was exhibited: ≥ 5.0 µM
  TGI MCF-7: 4.70 µM
  GI50: 3.82 µM
  CC50: 5.81 µM
[1]; MCF-7, at a concentration of 10 μM (the maximum dose)
  proliferation rate: −99.71%
[2]
  concentration at which a cytotoxic or cell proliferation inhibition activity was exhibited: ≥ 2.5 µM
  TGI MIA PaCa-2: 6.15 µM
  proliferation rate: −95.39%
[2]; Homo sapiens, MIA PaCa-2, 72 h
  GI50: 4.22 µM
[2]; Homo sapiens, MIA PaCa-2, 72 h, read-out: LC50 MIA PaCa-2
  CC50: 8.07 µM

Source: patent US8563743B2, “Benzofuranone compound and pharmaceutical composition containing same” (Fuso Pharmaceutical Industries, Ltd., priority 2010, dated 2013)
